Test results published in patent US20130005747A1, “METHOD FOR SELECTING A CANCER THERAPY” (Cyclacel Limited, priority 2010, published 2013).

Key:
Experiment in all cases: Fractional growth, 72 h seliciclib
Type in all cases: cell-based, human
A-427 = A-427 (Lung: NSCLC), 15 μM seliciclib
Source text: (§1) A total of 270 human cancer cell lines from diverse cancer histopathologic types were investigated.

A549 = A549 (Lung: NSCLC), 15 μM seliciclib
Source text: as §1

AN3CA = AN3CA (Uterus), 15 μM seliciclib
Source text: as §1

B-CPAP = B-CPAP (Thyroid), 15 μM seliciclib
Source text: as §1

BFTC-909 = BFTC-909 (Kidney), 15 μM seliciclib
Source text: as §1

BT-20 = BT-20 (Breast), 15 μM seliciclib
Source text: as §1

CAL-33 = CAL-33 (Head & Neck), 15 μM seliciclib
Source text: as §1

COR-L23 = COR-L23 (Lung: NSCLC), 15 μM seliciclib
Source text: as §1

H2596 = H2596 (Lung), 15 μM seliciclib
Source text: as §1

HCC38 = HCC38 (Breast), 15 μM seliciclib
Source text: as §1

HDQ-P1 = HDQ-P1 (Breast), 15 μM seliciclib
Source text: as §1

HSC-4 = HSC-4 (Head & Neck), 15 μM seliciclib
Source text: as §1

HT115 = HT115 (Intestine), 15 μM seliciclib
Source text: as §1

JHH-2 = JHH-2 (Liver), 15 μM seliciclib
Source text: as §1

KYSE-410 = KYSE-410 (Esophagus), 15 μM seliciclib
Source text: as §1

LU99A = LU99A (Lung: NSCLC), 15 μM seliciclib
Source text: as §1

MCF7 = MCF7 (Breast), 15 μM seliciclib
Source text: as §1

MIA PaCa-2 = MIA PaCa-2 (Pancreas), 15 μM seliciclib
Source text: as §1

NCI-H1651 = NCI-H1651 (Lung: NSCLC), 15 μM seliciclib
Source text: as §1

NCI-H1915 = NCI-H1915 (Lung: NSCLC), 15 μM seliciclib
Source text: as §1

NCI-H2023 = NCI-H2023 (Lung: NSCLC), 15 μM seliciclib
Source text: as §1

NCI-H2085 = NCI-H2085 (Lung: NSCLC), 15 μM seliciclib
Source text: as §1

NCI-H2170 = NCI-H2170 (Lung: NSCLC), 15 μM seliciclib
Source text: as §1

NCI-H2172 = NCI-H2172 (Lung: NSCLC), 15 μM seliciclib
Source text: as §1

NCI-H2452 = NCI-H2452 (Lung), 15 μM seliciclib
Source text: as §1

NCI-H841 = NCI-H841 (Lung), 15 μM seliciclib
Source text: as §1

PCI-38 = PCI-38 (Head & Neck), 15 μM seliciclib
Source text: as §1

PCI-6A = PCI-6A (Head & Neck), 15 μM seliciclib
Source text: as §1

SU.86.86 = SU.86.86 (Pancreas), 15 μM seliciclib
Source text: as §1

SW 156 = SW 156 (Kidney), 15 μM seliciclib
Source text: as §1

SW 48 = SW 48 (Intestine), 15 μM seliciclib
Source text: as §1

SW 780 = SW 780 (Bladder), 15 μM seliciclib
Source text: as §1

T24 = T24 (Bladder), 15 μM seliciclib
Source text: as §1

T47D = T47D (Breast), 15 μM seliciclib
Source text: as §1

T84 = T84 (Intestine), 15 μM seliciclib
Source text: as §1

VMRC-RCZ = VMRC-RCZ (Kidney), 15 μM seliciclib
Source text: as §1

XPA-4 = XPA-4 (Pancreas), 15 μM seliciclib
Source text: as §1

CC[C@H](CO)Nc1nc(NCc2ccccc2)c2ncn(C(C)C)c2n1 [seliciclib, roscovitine]
Fractional Growth (A-427): 0.4252
Fractional Growth (A549): 0.1925
Fractional Growth (AN3CA): 0.2094
Fractional Growth (B-CPAP): 0.5754
Fractional Growth (BFTC-909): 0.7132
Fractional Growth (BT-20): 0.7016
Fractional Growth (CAL-33): 0.6834
Fractional Growth (COR-L23): 0.2341
Fractional Growth (H2596): 0.7486
Fractional Growth (HCC38): 0.8297
Fractional Growth (HDQ-P1): 0.8137
Fractional Growth (HSC-4): 0.3894
Fractional Growth (HT115): 0.4837
Fractional Growth (JHH-2): 0.635
Fractional Growth (KYSE-410): 0.4693
Fractional Growth (LU99A): 0.0948
Fractional Growth (MCF7): 0.4137
Fractional Growth (MIA PaCa-2): 0.4826
Fractional Growth (NCI-H1651): 0.6289
Fractional Growth (NCI-H1915): 0.4337
Fractional Growth (NCI-H2023): 0.4148
Fractional Growth (NCI-H2085): 0.4597
Fractional Growth (NCI-H2170): 0.4534
Fractional Growth (NCI-H2172): 0.6197
Fractional Growth (NCI-H2452): 0.4571
Fractional Growth (NCI-H841): 0.7639
Fractional Growth (PCI-38): 0.3656
Fractional Growth (PCI-6A): 0.5818
Fractional Growth (SU.86.86): 0.3887
Fractional Growth (SW 156): 0.467
Fractional Growth (SW 48): 0.1123
Fractional Growth (SW 780): 0.3743
Fractional Growth (T24): 0.5262
Fractional Growth (T47D): 0.6314
Fractional Growth (T84): 0.5371
Fractional Growth (VMRC-RCZ): 0.5994
Fractional Growth (XPA-4): 0.3444
